Test results as given in US9353076B2, “Crystal form of cabazitaxel and preparation method thereof” (Chongqing Taihao Pharmaceutical Co., Ltd., priority 2012, dated 2016).

Assay: Accelerated stability test for a novel crystalline form of Cabazitaxel
Type: physicochemical

Substance | Content (%) (0 month) | Moisture (%) (0 month) | The other maximum individual impurity (%) (0 month) | Total impurity (%) (0 month) | Content (%) (1 month) | Moisture (%) (1 month) | The other maximum individual impurity (%) (1 month) | Total impurity (%) (1 month) | Content (%) (2 months) | Moisture (%) (2 months) | The other maximum individual impurity (%) (2 months) | Total impurity (%) (2 months) | Content (%) (3 months) | Moisture (%) (3 months) | The other maximum individual impurity (%) (3 months) | Total impurity (%) (3 months) | Content (%) (6 months) | Moisture (%) (6 months) | The other maximum individual impurity (%) (6 months) | Total impurity (%) (6 months)
4-acetoxy-2α-benzoyloxy-5β,20-epoxy-1-hydroxy-7β,10β-dimethoxy-9-oxo-11-taxadiene-13α-yl(2R,3S)-3-tert-butoxycarbonylamino-2-hydroxy-3-phenyl-propionate [crystalline form G of Cabazitaxel] | 99.4 | 1.92 | 0.05 | 0.17 | 99.4 | 1.96 | 0.05 | 0.16 | 99.4 | 1.99 | 0.05 | 0.17 | 99.3 | 2.03 | 0.05 | 0.16 | 99.1 | 2.09 | 0.05 | 0.16
4-acetoxy-2α-benzoyloxy-5β,20-epoxy-1-hydroxy-7β,10β-dimethoxy-9-oxo-11-taxadiene-13α-yl(2R,3S)-3-tert-butoxycarbonylamino-2-hydroxy-3-phenyl-propionate [crystalline form I of Cabazitaxel] | 99.7 | 0.45 | 0.06 | 0.21 | 99.6 | 0.47 | 0.06 | 0.20 | 99.7 | 0.50 | 0.05 | 0.20 | 99.6 | 0.54 | 0.06 | 0.21 | 99.5 | 0.51 | 0.06 | 0.22
4-acetoxy-2α-benzoyloxy-5β,20-epoxy-1-hydroxy-7β,10β-dimethoxy-9-oxo-11-taxadiene-13α-yl(2R,3S)-3-tert-butoxycarbonylamino-2-hydroxy-3-phenyl-propionate [crystalline form J of Cabazitaxel] | 99.8 | 0.40 | 0.08 | 0.25 | 99.7 | 0.44 | 0.07 | 0.25 | 99.6 | 0.46 | 0.07 | 0.28 | 99.6 | 0.50 | 0.08 | 0.26 | 99.5 | 0.48 | 0.08 | 0.28
